Reference: patent US20230263808A1 (UNIVERSITY OF FLORIDA RESEARCH FOUNDATION, INCORPORATED, priority 2020, published 2023)

Experiment: Lactate-tolerance test (rate of glucose production)
Assay type: in vivo, C57BL/6 male mice
Details: after overnight fast; 10 mg/kg Dex or SR16024, 50 mg/kg SR11466
Text: A) The effects of all tested compounds on IL-1β-induced IL-6 production (x-axes) versus GR interaction with the indicated peptides. B-C) The effects of all tested compounds on the indicated GC-regulated phenotypes (x-axes) versus GR interaction with the CHD9_1023 and CENPR_1 peptides (y-axes). D-F) COC plots. Each point represents the Pearson correlation coefficient, r, between a distinct gene expression or GR-peptide interaction assay with assays indicated on the x and y axes. G) The effects of all tested compounds on IL-1β-induced IL-6 production (y-axes) versus insulin-induced protein synthesis. […] IL-β-induced IL-6 production by A549 cells treated with the indicated compounds was compared by AlphaLISA. […] Mice in panel K were subjected to a lactate-tolerance test (LTT).
We were also interested in whether the compounds would show dissociation between Glut4 translocation in skeletal muscle and gluconeogenesis in the liver, but enhanced glucose production is typically studied after weeks or months of GC treatment. However, we reasoned that an overnight fast should enable detection of effects after a single dose. […] Thus, profiling effects of GCs in the physiological context of nutrient deprivation allowed the discovery of two new types of glucocorticoids with improved profiles in skeletal muscle.

C=CCOC1CC2(C)C(CCC2(O)C#CC)C2CCc3cc(C(=O)Nc4cccnc4C)ccc3C12 (stereo not shown) [SR11466]
rate of glucose production in lactate tolerance test: increased the rate of glucose production
